Data: patent publication US20150105252A1, “SUBSTITUTED PYRAZOLES AS HERBICIDES” (E I DU PONT DE NEMOURS AND COMPANY, priority 2013, published 2015)

What was measured:
lambsquarters [1] = test: Test C postemergence; type: in vivo, Chenopodium album; conditions: for Plant response rating (scale of 0 to 100 where 0 is no effect and 100 is complete control), Lambsquarters: Postemergence, 31 g ai/ha, visually evaluated after 13 to 15 days; for Lambsquarters plant response rating / Plant response rating, Lambsquarters: postemergence; for Lambsquarters plant response rating: 62 g ai/ha, scale 0 to 100
How it was run: (§1)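 Visual rating, 0–100 scale (0 no effect, 100 complete control), vs untreated controls after 13–15 d greenhouse. Pre: seeds in loam/sand, treated at sowing. Post: plants in peat-based mix, 1- to 4-leaf (2–18 cm). Solvent + surfactant formulation, non-phytotoxic.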

galium = test: Test C preemergence; type: in vivo, Galium aparine; conditions: preemergence; for Plant response rating, Galium: 125 g ai/ha, scale 0 to 100, 0 = no effect, 100 = complete control
How it was run: as §1

pigweed = test: Test A preemergence; type: in vivo, Amaranthus retroflexus; conditions: preemergence; for Pigweed plant response rating (0 to 100 scale): 125 g ai/ha, visual injury approx. 10 days after treatment; for Pigweed plant response rating: 500 g ai/ha, visual injury after approx. 10 days, 0 to 100 scale (0 no effect, 100 complete control)
How it was run: (§2)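 Visual injury rating, 0–100 (0 no effect, 100 complete control), vs untreated controls ~10 days after treatment in greenhouse. Pre: directed soil spray on seeded loam/sand. Post: 2–10 cm plants, 1–2 leaf stage. Formulation: non-phytotoxic solvent mix + surfactant.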

corn = test: Test C preemergence; type: in vivo, Zea mays; conditions: preemergence; for Plant response rating, Corn: 125 g ai/ha, scale 0 to 100, 0 = no effect, 100 = complete control
How it was run: as §1

ragweed = test: Test C preemergence; type: in vivo, Ambrosia elation; conditions: preemergence; for Plant response rating, Ragweed: 125 g ai/ha, scale 0 to 100, 0 = no effect, 100 = complete control
How it was run: as §1

wheat [2] = test: Test A postemergence; type: in vivo, Triticum aestivum
How it was run: as §2

kochia = test: Test C postemergence; type: in vivo, Kochia scoparia; conditions: for Plant response rating (scale of 0 to 100 where 0 is no effect and 100 is complete control), Kochia: Postemergence, 31 g ai/ha, visually evaluated after 13 to 15 days; for Kochia plant response rating / Plant response rating, Kochia: postemergence; for Kochia plant response rating: 62 g ai/ha, scale 0 to 100
How it was run: as §1

crabgrass, large = test: Test C postemergence; type: in vivo, Digitaria sanguinalis; conditions: for Plant response rating (scale of 0 to 100 where 0 is no effect and 100 is complete control), Crabgrass, Large: Postemergence, 31 g ai/ha, visually evaluated after 13 to 15 days; for Crabgrass, Large plant response rating / Plant response rating, Crabgrass, Large: postemergence; for Crabgrass, Large plant response rating: 62 g ai/ha, scale 0 to 100
How it was run: as §1

ryegrass, Italian = test: Test C postemergence; type: in vivo, Lolium multiflorum; conditions: for Plant response rating, Ryegrass, Italian: postemergence
How it was run: as §1

wheat [3] = test: Test C preemergence; type: in vivo, Triticum aestivum; conditions: preemergence; for Plant response rating, Wheat: 125 g ai/ha, scale 0 to 100, 0 = no effect, 100 = complete control
How it was run: as §1

sedge, umbrella = test: Test B flood; type: in vivo, Cyperus difformis; conditions: 250 g ai/ha, visual rating on 0 to 100 scale (0 no effect, 100 complete control), 13 to 15 days
How it was run: (§3)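 2-leaf plants; pots flooded 3 cm over soil; compound added to paddy water, depth kept constant. Greenhouse 13–15 d. Visual rating vs controls, 0–100 scale (100 = complete control); dash = no result.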

rice = test: Test B flood; type: in vivo, Oryza sativa; conditions: 250 g ai/ha, visual rating on 0 to 100 scale (0 no effect, 100 complete control), 13 to 15 days
How it was run: as §3

lambsquarters [4] = test: Test C preemergence; type: in vivo, Chenopodium album; conditions: preemergence; for Plant response rating, Lambsquarters: 125 g ai/ha, scale 0 to 100, 0 = no effect, 100 = complete control
How it was run: as §1

[5] = 250 g ai/ha, scale 0 to 100 (0 no effect, 100 complete control)
[6] = 125 g ai/ha, scale 0 to 100, 0 no effect, 100 complete control
[7] = 31 g ai/ha, visual rating, scale 0 to 100 (0 no effect, 100 complete control), 13 to 15 days
[8] = 62 g ai/ha, scale 0 to 100 (0 no effect, 100 complete control), 13 to 15 days
[9] = 250 g ai/ha, scale 0 to 100, 0 is no effect, 100 is complete control
[10] = Postemergence, 500 g ai/ha, 0 to 100 scale (0 no effect, 100 complete control)

For `CCCNC(=O)c1cc(OCC)n(Cc2ccnc(C(F)(F)F)c2)n1` [Compound 187], the “Plant response rating (scale of 0 to 100 where 0 is no effect and 100 is complete control), Lambsquarters” value (lambsquarters [1]) was 60, the “Lambsquarters plant response rating” value (lambsquarters [1]) was 75 and the “Plant response rating, Lambsquarters” value (lambsquarters [1]; [5]) was 90. For the same molecule, the “Plant response rating, Lambsquarters” value (lambsquarters [1]; [6]) was 75, the “Galium plant response rating” value (galium; [7]) was 90 and the “Galium plant response rating” value (galium; [8]) was 95. For the same molecule, the “Plant response rating, Galium” value (galium; 13 to 15 days) was 95, the “Galium plant response rating” value (galium; [9]) was 98 and the “Pigweed plant response rating (0 to 100 scale)” value (pigweed) was 0. The “Pigweed plant response rating” value (pigweed) was 0, the “Corn plant response rating” value (corn; [7]) was 20 and the “Corn plant response rating” value (corn; [8]) was 85. The “Plant response rating, Corn” value (corn; 13 to 15 days) was 95, the “Corn plant response rating” value (corn; [9]) was 98 and the “Ragweed plant response rating” value (ragweed; [7]) was 80. The “Ragweed plant response rating” value (ragweed; [8]) was 100, the “Plant response rating, Ragweed” value (ragweed; 13 to 15 days) was 98 and the “Ragweed plant response rating” value (ragweed; [9]) was 100. The “Wheat plant response rating” value (wheat [2]; Postemergence, 125 g ai/ha, 0 to 100 scale, 0 no effect, 100 complete control) was 50, the “Wheat plant response rating” value (wheat [2]; [10]) was 80 and the “Plant response rating (scale of 0 to 100 where 0 is no effect and 100 is complete control), Kochia” value (kochia) was 85. For the same molecule, the “Kochia plant response rating” value (kochia) was 90, the “Plant response rating, Kochia” value (kochia; [5]) was 90 and the “Plant response rating, Kochia” value (kochia; [6]) was 90. For the same molecule, the “Plant response rating (scale of 0 to 100 where 0 is no effect and 100 is complete control), Crabgrass, Large” value (crabgrass, large) was 10, the “Crabgrass, Large plant response rating” value (crabgrass, large) was 20 and the “Plant response rating, Crabgrass, Large” value (crabgrass, large; [5]) was 95. The “Plant response rating, Crabgrass, Large” value (crabgrass, large; [6]) was 60, the “Plant response rating, Ryegrass, Italian” value (ryegrass, Italian; [5]) was 30 and the “Plant response rating, Ryegrass, Italian” value (ryegrass, Italian; [6]) was 5. For the same molecule, the “Wheat plant response rating” value (wheat [3]; [7]) was 20, the “Wheat plant response rating” value (wheat [3]; [8]) was 80 and the “Plant response rating, Wheat” value (wheat [3]; 13 to 15 days) was 90. The “Wheat plant response rating” value (wheat [3]; [9]) was 90, the “Plant response rating, Sedge, Umbrella” value (sedge, umbrella) was 90 and the “Plant response rating, Rice” value (rice) was 45. For the same molecule, the “Lambsquarters plant response rating” value (lambsquarters [4]; [7]) was 100, the “Lambsquarters plant response rating” value (lambsquarters [4]; [8]) was 100 and the “Plant response rating, Lambsquarters” value (lambsquarters [4]; 13 to 15 days) was 100. The “Lambsquarters plant response rating” value (lambsquarters [4]; [9]) was 100.

With `O=C(NC1CC1)c1cc(CCCl)n(Cc2ccnc(C(F)(F)F)c2)n1` [Compound 144] the “Plant response rating (scale of 0 to 100 where 0 is no effect and 100 is complete control), Lambsquarters” value (lambsquarters [1]) was 60, the “Lambsquarters plant response rating” value (lambsquarters [1]) was 60 and the “Plant response rating, Lambsquarters” value (lambsquarters [1]; [5]) was 95. The “Plant response rating, Lambsquarters” value (lambsquarters [1]; [6]) was 70, the “Galium plant response rating” value (galium; [7]) was 30 and the “Galium plant response rating” value (galium; [8]) was 80. For the same molecule, the “Plant response rating, Galium” value (galium; 13 to 15 days) was 100, the “Galium plant response rating” value (galium; [9]) was 100 and the “Pigweed plant response rating (0 to 100 scale)” value (pigweed) was 100. The “Pigweed plant response rating” value (pigweed) was 100, the “Corn plant response rating” value (corn; [7]) was 5 and the “Corn plant response rating” value (corn; [8]) was 20. The “Plant response rating, Corn” value (corn; 13 to 15 days) was 60, the “Corn plant response rating” value (corn; [9]) was 85 and the “Ragweed plant response rating” value (ragweed; [7]) was 85. The “Ragweed plant response rating” value (ragweed; [8]) was 90, the “Plant response rating, Ragweed” value (ragweed; 13 to 15 days) was 95 and the “Ragweed plant response rating” value (ragweed; [9]) was 98. The “Wheat plant response rating” value (wheat [2]; [10]) was 90, the “Wheat plant response rating” value (wheat [2]; postemergence, 125 g ai/ha, about 10 days, visual rating on 0 to 100 scale (0 no effect, 100 complete control)) was 50 and the “Plant response rating (scale of 0 to 100 where 0 is no effect and 100 is complete control), Kochia” value (kochia) was 75. For the same molecule, the “Kochia plant response rating” value (kochia) was 85, the “Plant response rating, Kochia” value (kochia; [5]) was 95 and the “Plant response rating, Kochia” value (kochia; [6]) was 95. The “Plant response rating (scale of 0 to 100 where 0 is no effect and 100 is complete control), Crabgrass, Large” value (crabgrass, large) was 10, the “Crabgrass, Large plant response rating” value (crabgrass, large) was 10 and the “Plant response rating, Crabgrass, Large” value (crabgrass, large; [5]) was 55. For the same molecule, the “Plant response rating, Crabgrass, Large” value (crabgrass, large; [6]) was 10, the “Plant response rating (scale of 0 to 100 where 0 is no effect and 100 is complete control), Ryegrass, Italian” value (ryegrass, Italian; Postemergence, 31 g ai/ha, visually evaluated after 13 to 15 days) was 5 and the “Plant response rating, Ryegrass, Italian” value (ryegrass, Italian; [5]) was 5. The “Plant response rating, Ryegrass, Italian” value (ryegrass, Italian; [6]) was 5, the “Wheat plant response rating” value (wheat [3]; [7]) was 5 and the “Wheat plant response rating” value (wheat [3]; [8]) was 40. For the same molecule, the “Plant response rating, Wheat” value (wheat [3]; 13 to 15 days) was 80, the “Wheat plant response rating” value (wheat [3]; [9]) was 90 and the “Plant response rating, Sedge, Umbrella” value (sedge, umbrella) was 95. For the same molecule, the “Plant response rating, Rice” value (rice) was 0, the “Lambsquarters plant response rating” value (lambsquarters [4]; [7]) was 95 and the “Lambsquarters plant response rating” value (lambsquarters [4]; [8]) was 98. For the same molecule, the “Plant response rating, Lambsquarters” value (lambsquarters [4]; 13 to 15 days) was 98 and the “Lambsquarters plant response rating” value (lambsquarters [4]; [9]) was 98.
